Laboratory results reported in ChEMBL document CHEMBL3421545, “Discovery of novel non-covalent inhibitors selective to the β5-subunit of the human 20S proteasome” (Eur J Med Chem, 2015).

Key:
[1] = biological target: T1, Proteasome Macropain subunit MB1 (Homo sapiens, UniProt P28074); test: Inhibition of chymotrypsin-like activity of human beta-5 subunit of 20S proteasome using Suc-LLVY-AMC as substrate by fluorometer analysis
T1 sequence (P28074 whole entry): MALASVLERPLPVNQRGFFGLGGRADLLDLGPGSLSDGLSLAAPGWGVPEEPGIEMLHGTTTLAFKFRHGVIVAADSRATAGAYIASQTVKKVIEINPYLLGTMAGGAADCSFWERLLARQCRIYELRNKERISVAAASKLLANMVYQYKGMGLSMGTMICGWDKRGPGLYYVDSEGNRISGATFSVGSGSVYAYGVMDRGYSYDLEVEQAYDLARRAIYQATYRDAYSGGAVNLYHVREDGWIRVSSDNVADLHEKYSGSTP

[2] = biological target: Proteasome subunit beta type-6, β1, caspase-like (Homo sapiens) (UniProt P28072); test: Inhibition of caspase-like activity of human beta-1 subunit of 20S proteasome using (Z)-LLE-bNA as substrate at 10 ug/ml by fluorometer analysis
[3] = biological target: Proteasome subunit beta type-7, β2, trypsin-like (Homo sapiens) (UniProt Q99436); test: Inhibition of trypsin-like activity of human beta-2 subunit of 20S proteasome using Bz-VGR-AMC as substrate at 10 ug/ml by fluorometer analysis
[4] = Inhibition of chymotrypsin-like activity of 20S proteasome isolated from human THP1 cells using Suc-Leu-Leu-Val-Tyr-MCA as substrate by fluorometer analysis; assay type: cell-free; details: thp-1

Chain of Proteasome subunit beta type-6, β1, caspase-like (Homo sapiens) (P28072 whole entry, looked up): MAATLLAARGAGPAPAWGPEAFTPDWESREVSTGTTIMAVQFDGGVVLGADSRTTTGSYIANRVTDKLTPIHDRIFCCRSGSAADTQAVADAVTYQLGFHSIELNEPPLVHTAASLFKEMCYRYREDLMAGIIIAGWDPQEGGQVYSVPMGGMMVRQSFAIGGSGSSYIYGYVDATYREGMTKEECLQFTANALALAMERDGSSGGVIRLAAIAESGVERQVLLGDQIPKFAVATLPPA
Chain of Proteasome subunit beta type-7, β2, trypsin-like (Homo sapiens) (Q99436 whole entry, looked up): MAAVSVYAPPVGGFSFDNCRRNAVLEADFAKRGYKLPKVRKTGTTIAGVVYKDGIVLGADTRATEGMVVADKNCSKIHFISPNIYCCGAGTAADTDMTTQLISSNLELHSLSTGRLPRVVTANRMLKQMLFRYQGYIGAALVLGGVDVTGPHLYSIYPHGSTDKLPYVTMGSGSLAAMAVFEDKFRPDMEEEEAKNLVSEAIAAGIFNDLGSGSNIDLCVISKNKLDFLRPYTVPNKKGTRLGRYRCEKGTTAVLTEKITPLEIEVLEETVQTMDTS

IC50 ([1]; read-out: IC50) [µM]	IC50 [1]	Compound	further results
1.63		COc1ccc(CNC(=O)[C@@H](NC(=O)[C@H](CCC(N)=O)NC(=O)Cc2cccc(Oc3ccccc3)c2)C(C)C)c(O)c1	
	Not Active	CC(C)[C@H](NC(=O)[C@H](CC(N)=O)NC(=O)Cc1cccc(Oc2ccccc2)c1)C(=O)O	
	Not Active	COc1ccc(CNC(=O)[C@@H](NC(=O)[C@H](CCCCN)NC(=O)Cc2cccc(Oc3ccccc3)c2)C(C)C)c(O)c1	
0.66		COc1ccc(CNC(=O)[C@@H](NC(=O)[C@H](CC(N)=O)NC(=O)Cc2cccc(Oc3ccccc3)c2)C(C)C)c(O)c1	inhibition [2]: < 50%; inhibition [3]: < 50%
		C/C=C\NC(=O)[C@H]1NC(=O)[C@@H](CC(N)=O)NC(=O)[C@@H](NC(=O)C(=O)[C@@H](C)CC)Cc2ccc(O)c(c2)-c2cccc3c2NC(=O)[C@@]3(O)[C@@H]1O	IC50 [4]: 0.0054 µM
	Not Active	CC(C)[C@H](NC(=O)[C@H](CC(N)=O)NC(=O)Cc1cccc(Oc2ccccc2)c1)C(=O)N[C@H](C)c1ccccc1	
17.3		CC(C)[C@H](NC(=O)[C@H](CC(N)=O)NC(=O)Cc1cccc(Oc2ccccc2)c1)C(=O)OCc1ccccc1	
0.92		CC(C)[C@H](NC(=O)[C@H](CC(N)=O)NC(=O)Cc1cccc(Oc2ccccc2)c1)C(=O)N[C@H](C(=O)OCc1ccccc1)[C@H](C)O	inhibition [2]: < 50%; inhibition [3]: < 50%
13		CCCNC(=O)[C@@H](NC(=O)[C@H](CC(N)=O)NC(=O)Cc1cccc(Oc2ccccc2)c1)C(C)C	
17.2		CC(C)[C@H](NC(=O)[C@H](CC(N)=O)NC(=O)Cc1cccc(Oc2ccccc2)c1)C(=O)NCCO	
	Not Active	CC(C)[C@H](NC(=O)[C@H](CC(N)=O)NC(=O)Cc1cccc(Oc2ccccc2)c1)C(=O)NCCc1ccccc1	
0.29		COC(=O)[C@@H](NC(=O)[C@@H](NC(=O)[C@H](CC(N)=O)NC(=O)Cc1cccc(Oc2ccccc2)c1)C(C)C)[C@H](C)O	inhibition [2]: < 50%; inhibition [3]: < 50%
	Not Active	CC(C)[C@H](NC(=O)[C@H](CC(N)=O)NC(=O)Cc1cccc(Oc2ccccc2)c1)C(=O)N[C@@H](C)c1ccccc1	
13.9		CC(C)[C@H](NC(=O)[C@H](CC(N)=O)NC(=O)Cc1cccc(Oc2ccccc2)c1)C(=O)N[C@H](C(=O)O)[C@H](C)O	
11.7		COc1ccc(CNC(=O)[C@@H](NC(=O)[C@H](CCCCNC(=O)OCc2ccccc2)NC(=O)Cc2cccc(Oc3ccccc3)c2)C(C)C)c(O)c1	
	Not Active	COc1ccc(CNC(=O)[C@@H](NC(=O)[C@H](CC(N)=O)NC(=O)Cc2cccc(Oc3ccccc3)c2)C(C)C)c(OC)c1	
